From ChEMBL document CHEMBL1201862, “PubChem BioAssay data set” (2004)
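Assay format: 96-well plates, 48-hour exposure. The concentration for 50% growth inhibition is given as GI50.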 Activity calls are given as the source filed them. Rule as the data show it: active = GI50 up to about 1.1 µM and inactive = higher.

Columns and labels:
Assay in all cases: DTP human tumour cell line panel, 48 h
[1] = tested on: SK-OV-3
[2] = tested on: MOLT-4
[3] = tested on: RXF 393
[4] = tested on: A549
[5] = tested on: SF-268
[6] = tested on: MDA-MB-435
[7] = tested on: TK-10
[8] = tested on: SW-620
[9] = tested on: NCI-H226
[10] = tested on: SK-MEL-5
[11] = tested on: CAKI-1
[12] = tested on: SN12C
[13] = tested on: OVCAR-8
[14] = tested on: M14
[15] = tested on: RPMI-8226
[16] = tested on: DU-145
[17] = tested on: A498
[18] = tested on: Malme-3M
[19] = tested on: U-251
[20] = tested on: OVCAR-5

SMILES | GI50 [1] | GI50 [2] | GI50 [3] | GI50 [4] | GI50 [5] | GI50 [6] | GI50 [7] | GI50 [8] | GI50 [9] | GI50 [10] | GI50 [11] | GI50 [12] | GI50 [13] | GI50 [14] | GI50 [15] | GI50 [16] | GI50 [17] | GI50 [18] | GI50 [19] | GI50 [20]
O=P1(c2ccccc2)C(c2ccccc2)CCC1c1ccccc1 (stereo not drawn) | 40.9 µM (inactive) | 32.2 µM (inactive) | 96.8 µM (inactive) | 65.8 µM (inactive) | > 100 µM (inactive) | 34.9 µM (inactive) | 71 µM (inactive) | 89.9 µM (inactive) | 91.8 µM (inactive) | 37.2 µM (inactive) | 16.4 µM (inactive) | 34.9 µM (inactive) | 91.4 µM (inactive) | 68.5 µM (inactive) | 22.1 µM (inactive) | > 100 µM (inactive) | – | – | – | –
CN1C(=O)C(=CNc2ccccc2[N+](=O)[O-])C(=O)N(C)C1=O | > 100 µM (inactive) | > 100 µM (inactive) | > 100 µM (inactive) | > 100 µM (inactive) | > 100 µM (inactive) | > 100 µM (inactive) | > 100 µM (inactive) | > 100 µM (inactive) | > 100 µM (inactive) | > 100 µM (inactive) | > 100 µM (inactive) | > 100 µM (inactive) | > 100 µM (inactive) | > 100 µM (inactive) | > 100 µM (inactive) | – | > 100 µM (inactive) | > 100 µM (inactive) | > 100 µM (inactive) | > 100 µM (inactive)
CN(C)CCCNC(=O)CCNC(=O)c1cc(NC(=O)c2cc(NC(=O)c3cc(NC(=O)CCCNC(=O)c4cc(NC(=O)c5cc(NC(=O)c6nccn6C)cn5C)cn4C)cn3C)cn2C)cn1C | > 100 µM (inactive) | > 100 µM (inactive) | > 100 µM (inactive) | > 100 µM (inactive) | > 100 µM (inactive) | > 100 µM (inactive) | > 100 µM (inactive) | > 100 µM (inactive) | > 100 µM (inactive) | > 100 µM (inactive) | > 100 µM (inactive) | > 100 µM (inactive) | > 100 µM (inactive) | > 100 µM (inactive) | > 100 µM (inactive) | – | > 100 µM (inactive) | > 100 µM (inactive) | > 100 µM (inactive) | > 100 µM (inactive)
CC#C[C@]1(O)CCC2[C@@H]3CCC4=CC(=O)CCC4=C3[C@@H](c3ccc(N(C)C)cc3)C[C@@]21C (stereo partly drawn) | 18.3 µM (inactive) | – | – | 10.2 µM (inactive) | 6.85 µM (inactive) | 12.2 µM (inactive) | 11.9 µM (inactive) | 13.3 µM (inactive) | – | 10.9 µM (inactive) | 5.73 µM (inactive) | 21.8 µM (inactive) | 26.5 µM (inactive) | 13.8 µM (inactive) | 2.02 µM (inactive) | 22.1 µM (inactive) | – | 14.6 µM (inactive) | 12.5 µM (inactive) | 22.7 µM (inactive)
O=C(N/N=C1\C(=O)Nc2c(Cl)cc(Cl)cc21)C(=O)Nc1cccc(C(F)(F)F)c1 | > 100 µM (inactive) | 85.1 µM (inactive) | > 100 µM (inactive) | > 100 µM (inactive) | – | 45.5 µM (inactive) | > 100 µM (inactive) | > 100 µM (inactive) | > 100 µM (inactive) | > 100 µM (inactive) | > 100 µM (inactive) | > 100 µM (inactive) | > 100 µM (inactive) | > 100 µM (inactive) | – | – | > 100 µM (inactive) | > 100 µM (inactive) | 97.5 µM (inactive) | > 100 µM (inactive)
COC(=O)CCCc1ccc2c(c1)CC1(Cc3ccccc3C1)C2 | > 100 µM (inactive) | 0.333 µM (active) | 77.1 µM (inactive) | 58.9 µM (inactive) | – | 20.6 µM (inactive) | > 100 µM (inactive) | – | > 100 µM (inactive) | 20.1 µM (inactive) | – | 88.5 µM (inactive) | 70.1 µM (inactive) | 44.4 µM (inactive) | 28.4 µM (inactive) | – | 59.2 µM (inactive) | 87.1 µM (inactive) | > 100 µM (inactive) | > 100 µM (inactive)
